Measured values as given in US8741965B2, “Method of administering a pheromone composition to an animal to modify the animals behavior over an extended period of time” (Sergeant's Pet Care Products, Inc., priority 2011, dated 2014).
“Also recorded” adds a separate entry of the source.

Columns and labels:
cat = assay: Collar containing rabbit pheromone worn by cats (Example 7); format: in vivo; settings: collar worn by a cat
Description: A collar containing 2-methylbut-2-enal can be prepared in accordance with Examples 1 or 2.

nervous dogs = assay: Example 11 Study 1: baseline behavior and heart rate after collar or spray; format: in vivo, dog; settings: for pacing-walking behavior of individual dogs: Study 1, FIG. 3A; for sitting behavior of individual dogs: FIG. 3C; for heart rate of individual dogs: Study 1, dogs 1-4, FIG. 6; for overall dog heart rate and its decline: dogs 1-4, two hours after collar or spray, FIGS. 4, 5
Description: Eight dogs were obtained from a local contract research facility and assessment was made as to general dog health, behavior and heart rate. The dogs were estimated to be 2 to 7 years of age, mixed breed, and weighed averagely 8.1±0.18 kg at the start of the studies. […] Upon arrival each dog was bathed using shampoo containing flea and tick medicine (Hartz Mountain Corp. Secaucus, N.J. USA), and their body hair was shaved. Each dog was kept in a single room, which had 100% fresh air intake and exhaust. The dogs were fed twice (am and pm) per day ad libitum. At that time, the room was cleaned and the dogs obtained extra exercise. Water was available ad libitum.
Dog behavior was captured on video media at a sampling rate of 30 frames per second. Video records were reviewed in real time (with tape playing 30 frames per second). A scan sampling method was used to record dog behaviors each minute or each 5 minutes depending on the particular study. If the sample period was 120 minutes with four periods (0-30=0, 30-60=30, 60-90=60, and 90-120-90 min), then a scan sample was recorded each 1 minute. If the sample period was 24 hours, then the scan sample was collected each 5 minutes and summarized each hour. For example, pacing is when a dog walks in a stereotyped manner for minutes to hours. Because it was not easy to distinguish walking from pacing, the behaviors were merged. In addition, the video records could not clearly distinguish lying down and awake versus lying down and sleeping, therefore there was no separate description for these two behaviors.
Heart rate during the studies was measured by the use of a non-invasive telemetry system (Data Science International, St. Paul, Minn., USA). Leads were placed in contact with the dogs' shaved skin. Sensors measured heart rate, surface temperature and general activity. Data were transmitted to a receiving computer in another room. The sampling rate varied with the study, but was 5 seconds for the first two hours after treatments and then each 1 minute for 24 hours (depending on the particular study). For surface temperature measurements of the dog subjects, a thermistor was located against the skin of each dog. It recorded the surface temperature to the neared 0.1° C. on the same interval as the heart rate data.
Behavior and physiological data (heart rate and surface temperature) were analyzed by least squares analysis of variance using SAS (2011) software and the general linear models procedures. The experimental design of each study was a specialized randomized complete block in a Latin square design with data collected as a split plot over time. Dogs represented the blocks. Each dog received each treatment randomly in successive days or weeks. The statistical model included effects of treatment (TRT), dog, dog by treatment (TRT*DOG; error term used to assess treatment and dog effects), time (HR), treatment by time (TRT*HR), and residual error (SE; used to test remaining effects). Behavior data were collected and analyzed as counts per time period, but for clarity of presentation, the data are reported as percentage of time dogs engaged in each behavior.
In Study 1, baseline heart rate data were collected while the dogs each experienced 4 different treatments—a placebo collar (PLACEBO), Pheromone “H” Collar (SERG), Dog Appeasing Pheromone in collar form (DAPC) and the Rabbit Pheromone (RP; 1 μg/mL) formulated into a spray in accordance with Example 8. Each of the four treatments was given to each dog in a random order, with the treatment changing each week. Baseline heart rate and behavior data were collected for 30 minutes before each treatment application (see Table 8) and 2 hours after (see Table 9) (expressed in % of time).

[1] = system: dogs diagnosed as nervous; assay: Collars and heart rate of nervous dogs, 24 h basal and fog horn startle (Example 5); format: in vivo, dog; settings: collar
Procedure: Dogs diagnosed as being “nervous” were treated with four different treatments on different days: Placebo collar, Pheromone only collar (Serg), Rabbit INTEROMONE® collar (RP) (prepared in accordance with Example 1), and INTEROMONE® Plus Pheromone collar (Serg+RP) (prepared according to formulation provided in Example 3). Each dog experienced a given collar for 24 hours. Heart rate of the dogs was measured by remote telemetry. FIG. 22 illustrates the effects of the collars on heart rate collected over a period of 24 hours.
Each dog experienced a loud noise (fog horn) during a 2 second blast. The noise startled the dogs. Each dog had the collar on before, during and after the startle experience. […] The data illustrates that Serg alone had no effect on the startled dog heart rate. […] The data further indicate that only the RP is effective in reducing the heart rate of startled dogs.

dog = assay: Room diffuser containing rabbit pheromone, use on dogs (Example 8); format: in vivo; settings: 0.02% 2-methylbut-2-enal
Description: A room diffuser formulation containing rabbit pheromone can be prepared according to typical industry techniques described above. Table 4 is the list of ingredients that can be used to prepare a diffuser formulation comprising a rabbit pheromone.

rabbit pups = settings: presented on its own to rabbit pups; Schaal et al. 2003; cited from earlier work
anxious dogs = assay: Efficacy of pheromone/INTEROMONE collars on dog heart rate, 24 h baseline and after Fog Horn startle (Example 4); format: in vivo
Procedure: Heart rate and surface temperature were measured by telemetry.
The study was conducted in two phases: Baseline and after startle. In the baseline study each of the four dogs received each collar treatment in random order for two days at a time. Heart rate and surface temperature were collected each 5 seconds for 24 hours. In the second phase, dogs were startled with a 110 dB Fog Horn and heart rate was measured each 1 second for 10 minutes before and 2 hours after startle.

[2] = 120 minutes after treatment, no startle, SERG, DAPC collars, RP spray 1 μg/mL

C/C=C(\C)C=O [RP, 2-methylbut-2-enal]
change in cat behavior (cat): significant change in behavior towards a calmer demeanor
sitting over time versus other treatments (nervous dogs; 2-hour period after collar or spray, FIG. 3D): In the 60 minute period after treatment with rabbit pheromone, dogs also sat more than with the other treatments
average time dogs sat (nervous dogs; 30 minute period after spray, FIG. 3D): ~50 % of the time
Defecate (nervous dogs; [2]): 0 % of time
Drink (nervous dogs; [2]): 0.0 % of time
Eat (nervous dogs; [2]): 0.0 % of time
Lick self (nervous dogs; [2]): 0 % of time
Lying down (nervous dogs; [2]): 58.5 % of time
Pace-walk (nervous dogs; [2]): 7.6 % of time
Sitting (nervous dogs; [2]): 93.1 % of time
Standing (nervous dogs; [2]): 3.1 % of time
Urinate (nervous dogs; [2]): 0 % of time
pacing-walking behavior of individual dogs (nervous dogs; listed as RP spray): dog 7 showed reduced pacing-walking; also recorded: increased pacing-walking of dog 1 compared with the DAP collar
pacing-walking behavior of individual dogs (nervous dogs; listed as rabbit INTEROMONE® spray): Dog 3 increased pacing with Serg, but reduced its pacing with DAP collar and rabbit INTEROMONE® spray; also recorded: Dog 7's pacing was reduced by DAP collar and reduced even more by rabbit INTEROMONE® spray
lying down behavior / activity of individual dogs (nervous dogs; Study 1, compared with Placebo, FIG. 3B): For dog 2, both SERG and RP reduced lying down behavior significantly; also recorded: For dog 8, only RP increased dog activity and reduced lying down
sitting behavior of individual dogs (nervous dogs; Study 1, compared with Placebo, listed as RP spray): increased dog sitting in dogs 2 and 8
sitting behavior of individual dogs (nervous dogs; Study 1, compared with Placebo, listed as rabbit pheromone): dogs 2 and 8 showed increased sitting
heart rate of individual dogs (nervous dogs): decreased the heart rates of dogs 3 and 4 compared to other treatments
heart rate of individual dogs (nervous dogs; listed as Rabbit pheromone): decreased heart rate in dog 3
heart rate of individual dogs (nervous dogs; listed as rabbit pheromone spray): Dog 3 had decreased heart rate
speed of calming (nervous dogs; Study 1, spray versus collar): calms dogs faster than treatment with DAP collar
heart rate decline (slope of regression equation) (nervous dogs; dogs 1-4, FIG. 5, placebo 6 bpm/h): 24.5 bpm/h
overall dog heart rate and its decline (nervous dogs): had the greatest effect in decreasing dog heart rate
overall dog heart rate and its decline (nervous dogs; listed as rabbit pheromone): most significantly (P<0.05) reduced overall dog heart rate; also recorded: greater decline in heart rate than Placebo
heart rate collected over 24 hours ([1]; basal testing, versus placebo, FIG. 22): increased heart rate
heart rate during startle ([1]; fog horn 2 second blast, versus control, FIG. 24): lower heart rate during startle compared to control dogs
change in dog behavior (dog): significant change in behavior towards a calmer demeanor
concentration sufficient to elicit full nipple search and grasping behavior (as low as) (rabbit pups): 10 ng/mL
heart rate over 24 hours with collar (overall and individual dogs) (anxious dogs; baseline phase, versus Placebo, FIG. 19): increased the heart rate of dog 1
heart rate after startle (individual dogs) (anxious dogs; collar, 110 dB Fog Horn startle, FIG. 20): Dogs 1 and 4 had reduced heart rate
decline in heart rate from hour of startle (hour 1) to next hour (hour 2), slope of regression (anxious dogs; collar, after startle, FIG. 21, placebo 15 bpm): 26.6 bpm
